# Tests used:
# [1] = biological target: Hematopoietic prostaglandin D synthase (Homo sapiens, UniProt O60760); assay: Inhibition of glutathione-S-transferase activity of prostaglandin D2 synthase
# LAD2 = assay: Inhibition of PMA/ionomycin-induced PDG2 synthesis in human LAD2 cells; format: functional, cell-based
# [2] = Toxicity against PMA/ionomycin treated human LAD2 cells assessed as cellular viability; format: cell-based
# Sequence of Hematopoietic prostaglandin D synthase (O60760 whole entry): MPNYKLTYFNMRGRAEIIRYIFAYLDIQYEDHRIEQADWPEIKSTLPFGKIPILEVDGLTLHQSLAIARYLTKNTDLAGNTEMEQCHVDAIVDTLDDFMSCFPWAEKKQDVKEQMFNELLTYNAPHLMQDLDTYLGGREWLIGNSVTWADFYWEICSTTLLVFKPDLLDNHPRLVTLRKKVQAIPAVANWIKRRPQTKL
IC50 [1] [µM],EC50 (LAD2) [µM],Compound,Activity [2]
33,–,COc1ccc(-c2cnn(-c3ccccc3)c2N)cc1OC,–
26.4,–,Cc1cc(C)c(-c2cc[nH]n2)[nH]1,–
0.994,–,COc1ccccc1-c1csc(Nc2ccc(C(=O)O)cc2)n1,–
–,1.7,c1ccc(-c2ncc(-c3cc[nH]n3)s2)cc1,Non-toxic
12.4,–,COc1ccc(C(=O)CBr)c2ccccc12,–
45,–,CCOC(=O)c1cc(O)c(-c2ccccc2)nn1,–
1.5,–,COC(=O)c1ccc(-c2nnc(-c3ccncc3)[nH]2)nc1,–
0.075,–,Cc1ccc(NC(=O)c2cc(-c3ccccc3)ns2)cc1NC(=O)c1cccc(CN2CCN(C)CC2)c1,–
3.8,–,Cc1ccc(-c2cc3c(nn2)-c2ccccc2C3=O)cc1,–
34.7,–,Cc1ccc(-c2cc[nH]n2)cn1,–
17.4,–,Oc1c(Cl)cc(Cl)cc1-c1cc[nH]n1,–
3.8,–,O=C1c2ccccc2-c2nnc(-c3ccc(O)cc3)cc21,–
